Reference: patent publication US12612410B2 (CHILDREN'S HOSPITAL MEDICAL CENTER, priority 2020, dated 2026)

Each molecule was assayed against T1, FLT3 K663Q (Homo sapiens, UniProt P36888, K663Q) (assay: DiscoverX KINOMEscan competition binding, FLT3 K663Q).
T1 construct: host or cells: E. coli BL21-derived host (T7 phage) or HEK-293
T1 sequence (P36888 27-993 K663Q): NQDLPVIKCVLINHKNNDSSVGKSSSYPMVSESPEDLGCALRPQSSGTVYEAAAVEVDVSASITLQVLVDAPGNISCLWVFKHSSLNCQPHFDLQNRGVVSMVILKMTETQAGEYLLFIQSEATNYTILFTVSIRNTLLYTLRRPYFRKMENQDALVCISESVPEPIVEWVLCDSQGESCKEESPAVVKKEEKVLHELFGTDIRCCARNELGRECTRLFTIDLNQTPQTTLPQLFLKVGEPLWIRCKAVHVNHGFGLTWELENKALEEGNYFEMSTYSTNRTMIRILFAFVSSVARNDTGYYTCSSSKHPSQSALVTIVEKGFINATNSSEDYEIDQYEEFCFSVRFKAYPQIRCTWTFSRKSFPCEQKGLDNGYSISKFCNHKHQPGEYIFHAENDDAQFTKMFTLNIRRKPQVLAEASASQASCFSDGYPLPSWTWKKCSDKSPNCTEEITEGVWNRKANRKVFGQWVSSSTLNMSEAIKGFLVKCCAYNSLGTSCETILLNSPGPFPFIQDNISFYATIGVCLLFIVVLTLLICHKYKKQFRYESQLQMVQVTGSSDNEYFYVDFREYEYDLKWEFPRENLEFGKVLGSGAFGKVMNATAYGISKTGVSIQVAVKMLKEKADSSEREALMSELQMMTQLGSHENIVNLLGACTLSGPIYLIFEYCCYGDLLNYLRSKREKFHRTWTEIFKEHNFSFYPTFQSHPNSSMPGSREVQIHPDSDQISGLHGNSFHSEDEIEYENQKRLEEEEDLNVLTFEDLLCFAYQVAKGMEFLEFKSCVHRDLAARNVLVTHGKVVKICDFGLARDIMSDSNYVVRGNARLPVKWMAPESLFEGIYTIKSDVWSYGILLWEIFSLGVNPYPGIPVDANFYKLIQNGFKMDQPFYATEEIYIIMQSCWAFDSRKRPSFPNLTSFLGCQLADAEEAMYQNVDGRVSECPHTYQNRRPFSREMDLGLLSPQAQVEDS
Excerpt: Kinase binding data were obtained for various exemplary compounds prepared according to Examples 1-24 using the DiscoverX KINOMVIEscan® active site-directed competition binding site-directed assay protocol described below. […] As a result, the data report thermodynamic interaction affinities (Kd values), rather than IC50 values that are dependent on ATP concentrations. The assay uses a DNA-tagged version of the protein kinase, and an immobilized ligand bound to a solid support. Compounds that directly or indirectly prevent kinase binding to the immobilized ligand reduce the amount of kinase captured on the solid support, which is detected using an ultra-sensitive qPCR method. Affinity constants reported from the assay have been reported to be independent of the immobilized ligand used that is coupled to the solid support (See supplemental information in Fabian, M. A. et. al., (2005) Nat. Biotechnol. 23, 329-336; Wodicka, L. M. et. al., (2010) Chem. Biol. 17, 1241-1249.)
Kinase-tagged T7 phage strains were prepared in an E. coli host derived from the BL21 strain. E. coli were grown to log-phase and infected with T7 phage and incubated with shaking at 32° C. until lysis. The lysates were centrifuged and filtered to remove cell debris. The remaining kinases were produced in HEK-293 cells and subsequently tagged with DNA for qPCR detection. Streptavidin-coated magnetic beads were treated with biotinylated small molecule ligands for 30 minutes at room temperature to generate affinity resins for kinase assays. The liganded beads were blocked with excess biotin and washed with blocking buffer (SeaBlock (Pierce), 1% BSA, 0.05% Tween 20, 1 mM DTT) to remove unbound ligand and to reduce non-specific binding. Binding reactions were assembled by combining kinases, liganded affinity beads, and test compounds in 1× binding buffer (20% SeaBlock, 0.17×PBS, 0.05% Tween 20, 6 mM DTT). Test compounds were prepared as 111× stocks in 100% DMSO. Kds were determined using an 11-point 3-fold compound dilution series with three DMSO control points. All compounds for Kd measurements are distributed by acoustic transfer (non-contact dispensing) in 100% DMSO. The compounds were then diluted directly into the assays such that the final concentration of DMSO was 0.9%. All reactions were performed in polypropylene 384-well plates. Each was a final volume of 0.02 mL. The assay plates were incubated at room temperature with shaking for 1 hour and the affinity beads were washed with wash buffer (1×PBS, 0.05% Tween 20). The beads were then re-suspended in elution buffer (1×PBS, 0.05% Tween 20, 0.5 μM nonbiotinylated affinity ligand) and incubated at room temperature with shaking for 30 minutes. The kinase concentration in the eluates was measured by qPCR.
Binding constants (Kds) were calculated with a standard dose-response curve using the Hill equation. The Hill Slope was set to −1. Curves were fitted using a non-linear least square fit with the Levenberg-Marquardt algorithm.
CC1(c2cn3c(-c4cccc(N[C@H]5CNC[C@@H]5F)n4)cnc3cn2)CC1 [Compound 1, N-((3S,4S)-4-fluoropyrrolidin-3-yl)-6-(6-(1-methylcyclopropyl)imidazo[1,2-a]pyrazin-3-yl)pyridin-2-amine] gave a Kd of 240 pM.
With CC1(c2cn3c(-c4cccc(N[C@@H]5CCNC5)n4)cnc3cn2)CC1 [Compound 3, (R)-6-(6-(1-methylcyclopropyl)imidazo[1,2-a]pyrazin-3-yl)-N-(pyrrolidin-3-yl)pyridin-2-amine] the Kd was 220 pM.
For CC1(c2cn3c(-c4cccc(N[C@H]5CNCC56CC6)n4)cnc3cn2)CC1 [Compound 5, (R)-N-(6-(6-(1-methylcyclopropyl)imidazo[1,2-a]pyrazin-3-yl)pyridin-2-yl)-5-azaspiro[2.4]heptan-7-amine], the Kd was 180 pM.
Work on FC(F)(F)C1(c2cn3c(-c4cccc(N[C@@H]5CCNC5)n4)cnc3cn2)CC1 [Compound 10, (R)-N-(pyrrolidin-3-yl)-6-(6-(1-(trifluoromethyl)cyclopropyl)imidazo[1,2-a]pyrazin-3-yl)pyridin-2-amine] yielded a Kd of 450 pM.
FC(F)c1cn2c(-c3cccc(N[C@H]4CNC[C@@H]4F)n3)cnc2cn1 [Compound 16, 6-(6-(difluoromethyl)imidazo[1,2-a]pyrazin-3-yl)-N-((3S,4S)-4-fluoropyrrolidin-3-yl)pyridin-2-amine] gave a Kd of 1400 pM.
FC(F)c1cn2c(-c3cccc(N[C@H]4CNCC[C@@H]4F)n3)cnc2cn1 [Compound 25, 6-(6-(difluoromethyl)imidazo[1,2-a]pyrazin-3-yl)-N-((3S,4S)-4-fluoropiperidin-3-yl)pyridin-2-amine] gave a Kd of 590 pM.
Molecule CC(C)(O)c1cn2c(-c3cccc(N[C@@H]4CCCNC4)n3)cnc2cn1 [Compound 30, (R)-2-(3-(6-(piperidin-3-ylamino)pyridin-2-yl)imidazo[1,2-a]pyrazin-6-yl)propan-2-ol] has a Kd of 830 pM.
With CC(C)(O)c1cn2c(-c3cccc(N[C@H]4CNCC[C@@H]4F)n3)cnc2cn1 [Compound 31, 2-(3-(6-(((3S,4S)-4-fluoropiperidin-3-yl)amino)pyridin-2-yl)imidazo[1,2-a]pyrazin-6-yl)propan-2-ol] the Kd was 2400 pM.
Molecule FC(F)(F)COc1cn2c(-c3cccc(N[C@@H]4CCNC4)n3)cnc2cn1 [Compound 38, (R)-N-(pyrrolidin-3-yl)-6-(6-(2,2,2-trifluoroethoxy)imidazo[1,2-a]pyrazin-3-yl)pyridin-2-amine] has a Kd of 2300 pM.
With F[C@H]1CNC[C@@H]1Nc1cccc(-c2cnc3cnc(C4CC4)cn23)n1 [Compound 50, 6-(6-cyclopropylimidazo[1,2-a]pyrazin-3-yl)-N-((3S,4S)-4-fluoropyrrolidin-3-yl)pyridin-2-amine] the Kd was 390 pM.
Cn1cc(-c2cn3c(-c4cccc(N[C@H]5CNC[C@@H]5F)n4)cnc3cn2)cn1 [Compound 52, N-((3S,4S)-4-fluoropyrrolidin-3-yl)-6-(6-(1-methyl-1H-pyrazol-4-yl)imidazo[1,2-a]pyrazin-3-yl)pyridin-2-amine] gave a Kd of 820 pM.
